Test results reported in paper PMC2700827 (Journal of the American Chemical Society, 2008).
Read-outs that look alike come from different tables or passages of the source.

Legend:
[1] = hydrogen bond acceptor; cited from earlier work
[2] = phenol pKa given in Figure 5 legend, source not given

Compound | pKa [1] | pKa [2]
O=[N+]([O-])c1cc[n+]([O-])cc1 [4-nitropyridine-N-oxide] | −1.7 | 
Oc1c(F)cc(F)cc1F [2,4,6-F3-phenol] |  | 7.2
